± gives the expanded uncertainty stated by the source.
Settings: Liquid, Ebulliometric method (Recirculating still)

Question: With `C=C1CC/C=C(\C)CC[C@@H]2[C@@H]1CC2(C)C` as the compound, how does the “vapor or sublimation pressure” value (526.4 K) read?
Answer: The value was 101.33 ± 4.1 kPa.

Question: And the “vapor or sublimation pressure” value (526.47 K)?
Answer: Its value is 101.33 ± 4.1 kPa.

Question: And the “vapor or sublimation pressure” value (526.53 K)?
Answer: The value was 101.33 ± 4.1 kPa.

Question: For `Cc1ccc(C(C)C)cc1` [1-(1-methylethyl)-4-methylbenzene], which “vapor or sublimation pressure” value (449.7 K) is on record?
Answer: The value was 101.33 ± 4.1 kPa.

Question: With `C=C1C2CCC(C2)C1(C)C` (stereo unspecified) [2,2-dimethyl-3-methylenebicyclo[2.2.1]heptane] as the compound, how does the “vapor or sublimation pressure” value (432.73 K) read?
Answer: The value was 101.33 ± 4.1 kPa.

Question: What about the “vapor or sublimation pressure” value (432.74 K) of the same compound?
Answer: The value was 101.33 ± 4.1 kPa.

Question: What about the “vapor or sublimation pressure” value (432.76 K) of the same compound?
Answer: Its value is 101.33 ± 4.1 kPa.

Question: What about the “vapor or sublimation pressure” value (432.8 K) of the same compound?
Answer: Its value is 101.33 ± 4.1 kPa.

Question: Which “vapor or sublimation pressure” value (428.64 K) does the source give for `CC1=CCC2CC1C2(C)C` (stereo unspecified) [2-pinene] here?
Answer: Its value is 101.33 ± 4.1 kPa.

Question: What about the “vapor or sublimation pressure” value (428.65 K) of the same compound?
Answer: The value was 101.33 ± 4.1 kPa.

Question: With `CC1=CC[C@@H]2[C@H](C1)C2(C)C` [(+)-3-carene] as the compound, how does the “vapor or sublimation pressure” value (442.63 K) read?
Answer: The value was 101.33 ± 4.1 kPa.

— the NIST ThermoML archive (doi:10.1016/j.tca.2019.178318)
